# Tests used:
# 4T1 cells = experiment: 4T1 orthotopic mouse mammary carcinoma model (primary tumor, lung metastasis, CTCs); type: in vivo
# Source text: In order to investigate this, the 4T1 mouse mammary carcinoma model, which recapitulates many of the characteristics of human breast cancer, was employed.
# Tumor progression was monitored weekly using caliper measurements and bioluminescence. Starting week 3 post-implantation, 5 mice per group were sacrificed and surgically excised the primary tumors and lungs were surgically excised. […] This observation was corroborated by caliper measurements (FIG. 15C) and the bioluminescent signal emitted by these tumors (FIGS. 20A, 20B). Indeed, there were no significant differences in the latency and growth rates of the vehicle- and SB203580-treated primary tumors during this timecourse (FIGS. 15C and 20B).
# NOD/SCID and BALB/c mice were purchased from the Jackson Laboratory (Bar Harbor, Me., USA). To examine primary tumor formation and spontaneous metastasis, luciferase-labeled 4T1 cells (1×10^4 or 5×10^4) were injected into the inguinal mammary fat-pad of BALB/c mice. For experimental metastasis studies, 0.5×10^6 luciferase-labeled MDA-MB-231 cells were injected into NOD/SCID mice via the tail vein. […] Mice were assessed weekly for tumor growth and metastasis via subcutaneous injection of D-Luciferin (150 mg/kg; Caliper LifeSciences, Hopkinton, Mass., USA) and bioluminescent imaging (IVIS imaging system 200 series; Xenogen Corporation, PerkinElmer, Waltham, Mass., USA). Primary tumor size was measured with a caliper as the product of two perpendicular diameters (mm^2). At the indicated timepoints, primary tumors and lungs were surgically excised, imaged and processed for histology.
# Mice were orthotopically injected with red fluorescent protein (RFP)/luciferase-labeled 4T1 cells. Starting week 3 post-injection, blood was collected, via cardiac puncture, in EDTA-coated tubes and treated with Ammonium-Chloride-Potassium lysing buffer (Invitrogen). Cells were cultured in RPMI-1640 medium containing 10% fetal bovine serum and penicillin/streptomycin. RFP-positive colonies were counted after 3 days.
# DU145 cells [1] = experiment: Tumorsphere assay, DU145 cells; type: cell-based, human; conditions: DU145, SB203580 5 μM, 7 days
# Protocol: Cell lines: Authenticated LNCaP, DU145, and PC3 cells were procured from ATCC and cultured in RPMI with 10% fetal bovine serum (FBS) with penicillin/streptomycin. Cells overexpressing EMT transcription factors and shRNA were also cultured in the same media. HEK293T cells were cultured in DMEM with 10% FBS and penicillin/streptomycin. All cell lines used for this study were recently confirmed negative for mycoplasma contamination.
# Immunoblotting, Immunofluorescence, RTPCR, wound healing- and tumorsphere assays were performed as previously described (Sarkar et al., 2015). Cell viability (MTS) was assessed using the CellTiter96 Aqueous One-Solution Cell Proliferation Assay kit (Promega).
# DU145 cells [2] = experiment: DU145 subcutaneous tumors in NOD/SCID mice; type: in vivo; conditions: subcutaneous dosing 5 days/week; SB203580 0.2 μmols per mouse, Enzalutamide 10 mg/kg; vs vehicle
# Protocol: To investigate the effect of inhibition of FOXC2-dependent EMT/CSC attributes on tumor formation in vivo, NOD/SCID mice were subcutaneously injected with DU145 cells and began treatment in vivo, after formation of palpable tumors.
# Immediately after sacrificing the mice, ˜100 μl blood was isolated via venipuncture in EDTA-treated collection tubes and stored on ice. Within 30 minutes, the blood was spun down at 1200 rpm for 5 minutes, and the pellet resuspended in 1 ml ACK-lysing buffer (Life Tech) and further incubated for 3-5 minutes. Cells were washed once with PBS, resuspended in RPMI with 10% FBS and pen/strep, and cultured on 10 cm tissue culture dishes. RFP-positive colonies (originating from the labeled DU145 cells injected into mice) were counted after 3-4 days in culture and quantified.
# ˜4 week-old male NOD.CB17-Prkdcscid/J mice were purchased from the Jackson Laboratory (Maine, USA). […] Once palpable tumors were discernable, tumor-bearing mice were randomly segregated into 4 groups, and drug treatment was initiated every 24 hours for 5 days/week. […] Investigators were blinded to the group allocation while assessing experimental outcomes. At the end of the treatment period, tumors were excised, average diameter calculated using calipers, and tumor weight noted. […]
compound,measurement,setting,value
"C[S+]([O-])c1ccc(-c2nc(-c3ccc(F)cc3)c(-c3ccncc3)[nH]2)cc1 (stereo not shown) [SB203580, 4-(4-Fluorophenyl)-2-(4-methylsulfinylphenyl)-5-(4-pyridyl) 1H-imidazole]",Primary tumor size,"4T1 cells; 4T1 cells, daily treatment, weeks 3-6",primary tumors of a similar size relative to vehicle-treated counterparts
same,Lung metastases (bioluminescent signal),"4T1 cells; 4T1 cells, systemic daily treatment",strikingly fewer lung metastases
same,Metastatic burden (lung),4T1 cells; mice harboring 4T1-FOXC2(S367E) cells,failed to significantly reduce the metastatic burden
same,Reduction of incidence of lung metastases compared to vehicle,"4T1 cells; mice harboring 4T1-vector cells, daily SB203580",> 20 fold
same,Primary tumor growth,4T1 cells; mice harboring 4T1-vector or 4T1-FOXC2(S367E) cells,no significant differences in primary tumor growth
same,Microvessel density of primary tumors (CD31 immunohistochemistry),4T1 cells; vs vehicle-treated,did not reveal significant differences
same,CTCs recovered from blood,4T1 cells; week 6 post-implantation,very few CTCs were recovered
same,CTCs recovered from blood,4T1 cells; weeks 3-5 post-implantation,no CTCs were recovered from SB203580-treated mice until week 5
same,Tumorsphere formation,DU145 cells [1],significant reduction
same,Tumor size (volume and weight),DU145 cells [2],no appreciable change in tumor size
